Legend:
[1] = biological target: T1, LH-RH-I receptors, membranes of human UM models (Homo sapiens, UniProt P30968); experiment: Radioligand binding / ligand competition, human UM samples; details: increasing concentrations 10^−12–10^−6 M; data not shown
T1 sequence (P30968 1-328): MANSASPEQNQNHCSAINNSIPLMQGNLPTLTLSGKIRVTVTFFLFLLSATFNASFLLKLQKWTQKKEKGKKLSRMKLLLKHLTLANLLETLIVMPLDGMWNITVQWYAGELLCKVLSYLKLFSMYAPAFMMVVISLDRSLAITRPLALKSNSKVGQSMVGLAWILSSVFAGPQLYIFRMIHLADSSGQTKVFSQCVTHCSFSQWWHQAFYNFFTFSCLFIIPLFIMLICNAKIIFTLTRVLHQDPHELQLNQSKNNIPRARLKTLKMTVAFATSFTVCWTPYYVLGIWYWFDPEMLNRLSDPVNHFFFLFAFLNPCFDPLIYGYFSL

[2] = system: LH-RH-I receptors expressed in rat pituitaries; details: cited from earlier work

| Substance | displacement of radiolabeled [D-Trp6]LH-RH binding [1] | binding affinity to LH-RH-I receptors [2] |
| --- | --- | --- |
| buserelin | completely displaced |  |
| [^125I][D-Trp[6]]LH-RH |  | high affinity binding |

Reference: paper PMC5826244 (OncoTargets and therapy, 2018)
